From paper PMC3170524 (Physiological research / Academia Scientiarum Bohemoslovaca, 2010)
Where a chain is given by its changes, count along the chain named.

Columns and labels:
Test in all cases: whole-cell patch clamp, peak current dose-response
Type in all cases: cell-based
rat P2X4R [1] = target: T1, rat P2X4R (Rattus norvegicus, UniProt P51577, C126T/C149T)
T1 sequence (P51577 1-388 C126T/C149T): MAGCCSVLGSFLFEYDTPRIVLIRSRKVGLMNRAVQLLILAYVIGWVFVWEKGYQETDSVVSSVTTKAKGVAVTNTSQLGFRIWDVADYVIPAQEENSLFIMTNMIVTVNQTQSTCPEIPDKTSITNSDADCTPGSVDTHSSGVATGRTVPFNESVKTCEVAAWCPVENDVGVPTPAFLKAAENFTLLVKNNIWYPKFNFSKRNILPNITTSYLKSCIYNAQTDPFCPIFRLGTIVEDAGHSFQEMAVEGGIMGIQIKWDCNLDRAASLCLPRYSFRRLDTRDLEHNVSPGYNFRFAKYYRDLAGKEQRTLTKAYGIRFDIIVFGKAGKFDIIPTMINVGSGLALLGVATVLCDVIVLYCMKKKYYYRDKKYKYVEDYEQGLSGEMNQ

rat P2X4R [2] = target: T2, rat P2X4R (Rattus norvegicus, UniProt P51577, C165T)
T2 sequence (P51577 1-388 C165T): T1 sequence (P51577 1-388 C126T/C149T) with T126C, T149C, C165T

rat P2X4R [3] = target: T3, rat P2X4R (Rattus norvegicus, UniProt P51577, C165A)
T3 sequence (P51577 1-388 C165A): T1 sequence (P51577 1-388 C126T/C149T) with T126C, T149C, C165A

rat P2X4R [4] = target: T4, rat P2X4R (Rattus norvegicus, UniProt P51577, C116T)
T4 sequence (P51577 1-388 C116T): T1 sequence (P51577 1-388 C126T/C149T) with C116T, T126C, T149C

Compound: Nc1ncnc2c1ncn2[C@@H]1O[C@H](COP(=O)(O)OP(=O)(O)OP(=O)(O)O)[C@@H](O)[C@H]1O [ATP]
- EC50 (rat P2X4R [1]): 65 ± 24 µM
- EC50 (rat P2X4R [2]): 45 ± 3.8 µM
- EC50 (rat P2X4R [3]): 42 ± 8.9 µM
- EC50 (rat P2X4R [4]): 21 ± 4.1 µM
